According to US20250223268A1, “4-Methylsulfonylbenzamide Compound, Preparation Method, Herbicidal Composition And Use” (Jiangsu Flag Chemical Industry Co., Ltd., priority 2022, published 2025):

Assays:
Experiment in all cases: Greenhouse herbicidal activity assay, post-emergence
Type in all cases: in vivo
Eclipta prostrata = conditions: Post-emergence test, rate 150 g a.i./hm^2, grade by fresh weight inhibition rate
Excerpt: (§1) Post-emergence: Seeds of gramineous weeds (Echinochloa crusgalli, Echinochloa crusgalli var. zelayensis, Echinochloa phyllopogon, Eleusine indica, Digitaria sanguinalis, Leptochloa chinensis, Setaria viridis, Alopecurus japonicus Steud, Beckmannia syzigachne, Polypogon fugax, Alopecurus aequalis, Lolium multiflorum, Poa annua, Aegilops tataschii, Avena fatua, Alopecurus myosuroides, Bromus japonicus), broadleaf weeds (Eclipta prostrata, Amaranthus retroflexus, Rorippa indica, Myosoton aquaticum, Veronica didyma, Galium aparine, Solanum nigrum, Xanthium sibiricum, Conyza canadensis, Sesbania cannabina, Sagittaria trifolia), and Cyperus iria (Cyperus iria, Scirpus juncoides, Cyperus difformis, etc.) were sown in plastic pots (7 cm diameter) with nutrient soil and bottom holes. Crop seeds (including Oryza sativa subsp. indica, Oryza sativa subsp. japonica, Oryza sativa L. var. Glutinosa matsum, Triticum aestivum, Zea mays, Sorghum bicolor, Setaria italica, Glycine max, Gossypium hirsutum, Brassica napus, Arachis hypogaea) were sown in plastic pots (10 cm diameter) with nutrient soil and bottom holes. After sowing, the pots were placed in the growth chamber until the plants reached the 3-6 leaf stage for foliar spraying. Post-treatment, the materials were air-dried naturally and returned to the growth chamber. Results were assessed 14-21 days later.
(§2) • A: Fresh weight inhibition rate≥80% to 100%; • B: Fresh weight inhibition rate[…] to <80%; • C: Fresh weight inhibition rate≥40% to <60%; • D: Fresh weight inhibition rate≥20% to <40%; • E: Fresh weight inhibition rate<20%; • NT: Not tested.

Echinochloa crusgalli = conditions: Post-emergence test, rate 150 g a.i./hm^2, grade by fresh weight inhibition rate; for pest or weed control at 150 g/ha: Echinochloa crus-galli, read-out: Control efficacy grade, Echinochloa crusgalli
Excerpt: as §1, §2

Cyperus iria = conditions: Post-emergence test, rate 150 g a.i./hm^2, grade by fresh weight inhibition rate; for pest or weed control at 150 g/ha: Cyperus iria, read-out: Control efficacy grade, Cyperus iria
Excerpt: as §1, §2

Leptochloa chinensis = conditions: Post-emergence test, rate 150 g a.i./hm^2, grade by fresh weight inhibition rate; for pest or weed control at 150 g/ha: Dinebra chinensis, read-out: Control efficacy grade, Leptochloa chinensis
Excerpt: as §1, §2

Digitaria sanguinalis = conditions: Post-emergence test, rate 150 g a.i./hm^2; grade by fresh weight inhibition rate
Excerpt: as §1, §2

Row | Compound | Control efficacy grade, Eclipta prostrata (Eclipta prostrata) | Control efficacy grade, Echinochloa crusgalli (Echinochloa crusgalli) | Control efficacy grade, Cyperus iria (Cyperus iria) | Control efficacy grade, Leptochloa chinensis (Leptochloa chinensis) | Control efficacy grade, Digitaria sanguinalis (Digitaria sanguinalis) | pest or weed control at 150 g/ha (Echinochloa crusgalli) [%] | pest or weed control at 150 g/ha (Cyperus iria) [%] | pest or weed control at 150 g/ha (Leptochloa chinensis) [%] | pest or weed control at 150 g/ha (Eclipta prostrata; Eclipta prostrata, read-out: Control efficacy grade, Eclipta prostrata) [%]
1 | CCC(C)Sc1c(S(C)(=O)=O)ccc(C(=O)Nc2nnnn2C)c1Cl (racemic) [Compound 1-16] | A (Fresh weight inhibition rate≥80% to 100%) | A (Fresh weight inhibition rate≥80% to 100%) | B (Fresh weight inhibition rate≥260% to <80%) | A (Fresh weight inhibition rate≥80% to 100%) |  |  |  |  | 
2 | Cn1nnnc1NC(=O)c1ccc(S(C)(=O)=O)c([S+]([O-])C2CCCC2)c1Cl (racemic) [Compound 1-43] | A (Fresh weight inhibition rate≥80% to 100%) | A (Fresh weight inhibition rate≥80% to 100%) | A (Fresh weight inhibition rate≥80% to 100%) | A (Fresh weight inhibition rate≥80% to 100%) |  |  |  |  | 
3 | CCC[S+]([O-])c1c(S(C)(=O)=O)ccc(C(=O)N(C)c2nnnn2C)c1Cl (racemic) [Compound 1-98] |  | A (Fresh weight inhibition rate≥80% to 100%) | A (Fresh weight inhibition rate≥80% to 100%) | A (Fresh weight inhibition rate≥80% to 100%) |  |  |  |  | 
4 | Cc1nnc(NC(=O)c2ccc(S(C)(=O)=O)c([S+]([O-])Cc3ccccc3)c2Cl)o1 (racemic) [Compound 3-68] | A (Fresh weight inhibition rate≥80% to 100%) |  | A (Fresh weight inhibition rate≥80% to 100%) | A (Fresh weight inhibition rate≥80% to 100%) | B (Fresh weight inhibition rate≥260% to <80%) |  |  |  | 
5 | CCc1nnc(NC(=O)c2ccc(S(C)(=O)=O)c(SC(C)CC)c2Cl)o1 (racemic) [Compound 3-398] |  | B (Fresh weight inhibition rate≥260% to <80%) | A (Fresh weight inhibition rate≥80% to 100%) | A (Fresh weight inhibition rate≥80% to 100%) |  |  |  |  | 
6 | CC(C)c1nnc(NC(=O)c2ccc(S(C)(=O)=O)c([S+]([O-])C3CCCC3)c2Cl)o1 (racemic) [Compound 3-546] | A (Fresh weight inhibition rate≥80% to 100%) | B (Fresh weight inhibition rate≥260% to <80%) | A (Fresh weight inhibition rate≥80% to 100%) | A (Fresh weight inhibition rate≥80% to 100%) |  |  |  |  | 
7 | CC(C)c1nnc(NC(=O)c2ccc(S(C)(=O)=O)c([S+]([O-])C3CCCCC3)c2Cl)o1 (racemic) [Compound 3-551] | A (Fresh weight inhibition rate≥80% to 100%) | B (Fresh weight inhibition rate≥260% to <80%) | A (Fresh weight inhibition rate≥80% to 100%) | A (Fresh weight inhibition rate≥80% to 100%) |  |  |  |  | 
8 | CS(=O)(=O)c1ccc(C(=O)Nc2nnc(C3CC3)o2)c(Cl)c1[S+]([O-])C1CC1 (racemic) [Compound 3-652] | A (Fresh weight inhibition rate≥80% to 100%) |  | A (Fresh weight inhibition rate≥80% to 100%) | A (Fresh weight inhibition rate≥80% to 100%) | A (Fresh weight inhibition rate≥80% to 100%) |  |  |  | 
9 | CS(=O)(=O)c1ccc(C(=O)Nc2nnc(C3CC3)o2)c(Cl)c1[S+]([O-])C1CCCC1 (racemic) [Compound 3-662] | A (Fresh weight inhibition rate≥80% to 100%) |  | A (Fresh weight inhibition rate≥80% to 100%) | A (Fresh weight inhibition rate≥80% to 100%) | A (Fresh weight inhibition rate≥80% to 100%) |  |  |  | 
10 | Cc1nnc(N(C)C(=O)c2ccc(S(C)(=O)=O)c([S+]([O-])C3CC3)c2Cl)o1 (racemic) [Compound 3-812] | A (Fresh weight inhibition rate≥80% to 100%) | B (Fresh weight inhibition rate≥260% to <80%) |  | B (Fresh weight inhibition rate≥260% to <80%) |  |  |  |  | 
11 | Cc1nnc(N(C)C(=O)c2ccc(S(C)(=O)=O)c([S+]([O-])CC(C)C)c2Cl)o1 (racemic) [Compound 3-829] |  | A (Fresh weight inhibition rate≥80% to 100%) |  | B (Fresh weight inhibition rate≥260% to <80%) |  |  |  |  | 
12 | Cc1nnc(N(C)C(=O)c2ccc(S(C)(=O)=O)c([S+]([O-])CC(F)(F)F)c2Cl)o1 (racemic) [Compound 3-832] |  | A (Fresh weight inhibition rate≥80% to 100%) |  |  |  |  |  |  | 
13 | Cc1nnc(N(C)C(=O)c2ccc(S(C)(=O)=O)c([S+]([O-])CCCl)c2Cl)o1 (racemic) [Compound 3-835] |  | A (Fresh weight inhibition rate≥80% to 100%) |  |  |  |  |  |  | 
14 | Cn1nnnc1NC(=O)c1ccc(S(C)(=O)=O)c(SC2CCC2)c1Cl [Compound 1-37] | A (Fresh weight inhibition rate≥80% to 100%) | A (Fresh weight inhibition rate≥80% to 100%) | A (Fresh weight inhibition rate≥80% to 100%) |  |  |  |  |  | 
15 | Cn1nnnc1NC(=O)c1ccc(S(C)(=O)=O)c(SC2CCCC2)c1Cl [Compound 1-42] | A (Fresh weight inhibition rate≥80% to 100%) | B (Fresh weight inhibition rate≥260% to <80%) | A (Fresh weight inhibition rate≥80% to 100%) | A (Fresh weight inhibition rate≥80% to 100%) |  |  |  |  | 
16 | Cn1nnnc1NC(=O)c1ccc(S(C)(=O)=O)c(SC2CCCCC2)c1Cl [Compound 1-47] | A (Fresh weight inhibition rate≥80% to 100%) | B (Fresh weight inhibition rate≥260% to <80%) | A (Fresh weight inhibition rate≥80% to 100%) | A (Fresh weight inhibition rate≥80% to 100%) |  |  |  |  | 
17 | CCCSc1c(S(C)(=O)=O)ccc(C(=O)N(C)c2nnnn2C)c1Cl [Compound 1-97] |  |  | A (Fresh weight inhibition rate≥80% to 100%) |  | B (Fresh weight inhibition rate≥260% to <80%) |  |  |  | 
18 | Cn1ncnc1NC(=O)c1ccc(S(C)(=O)=O)c(S(=O)(=O)CC2CC2)c1Cl [Compound 2-31] | A (Fresh weight inhibition rate≥80% to 100%) | A (Fresh weight inhibition rate≥80% to 100%) | A (Fresh weight inhibition rate≥80% to 100%) | A (Fresh weight inhibition rate≥80% to 100%) |  |  |  |  | 
19 | CS(=O)(=O)c1ccc(C(=O)Nc2nnco2)c(Cl)c1S(=O)(=O)CCC#N [Compound 3-377] | A (Fresh weight inhibition rate≥80% to 100%) | C (Fresh weight inhibition rate≥40% to <60%) | A (Fresh weight inhibition rate≥80% to 100%) | A (Fresh weight inhibition rate≥80% to 100%) |  |  |  |  | 
20 | CCc1nnc(NC(=O)c2ccc(S(C)(=O)=O)c(SC(C)C)c2Cl)o1 [Compound 3-388, 2-chloro-N-(5-ethyl-1,3,4-oxadiazol-2-yl)-3-(isopropylthio)-4-(methylsulfonyl)benzamide] |  |  |  |  |  | 80 to 100 | 80 to 100 | 80 to 100 | 
21 | CC(C)c1nnc(NC(=O)c2ccc(S(C)(=O)=O)c(SC3CC3)c2Cl)o1 [Compound 3-535] |  | B (Fresh weight inhibition rate≥260% to <80%) | A (Fresh weight inhibition rate≥80% to 100%) | B (Fresh weight inhibition rate≥260% to <80%) |  |  |  |  | 
22 | CC(C)Sc1c(S(C)(=O)=O)ccc(C(=O)Nc2nnc(C3CC3)o2)c1Cl [Compound 3-620, 2-chloro-N-(5-cyclopropyl-1,3,4-oxadiazol-2-yl)-3-(isopropylthio)-4-(methylsulfonyl)benzamide] |  |  |  |  |  | 80 to 100 | 80 to 260 | 80 to 100 | 80 to 260
23 | CCCSc1c(S(C)(=O)=O)ccc(C(=O)N(C)c2nnc(C)o2)c1Cl [Compound 3-786, 2-chloro-N-methyl-N-(5-methyl-1,3,4-oxadiazol-2-yl)-4-(methylsulfonyl)-3-(propylthio)benzamide] |  |  |  |  |  | 80 to 260 |  |  | 
